# Test results reported in ChEMBL document CHEMBL2057064, “Activation of human RNase L by 2'- and 5'-O-methylphosphonate-modified oligoadenylates” (Bioorg Med Chem Lett, 2012).
# Calls of active or inactive are those of the source. The rule behind the calls is not given here.
# Columns and labels:
# [1] = target: T1, 2-5A-dependent ribonuclease (Homo sapiens, UniProt Q05823); assay: Activation of human RNase L expressed in Escherichia coli BL21 (DE3) cells assessed as RNA cleavage using Cy5-rC11-UU-C7-BHQ2 as substrate by FRET assay
# T1 sequence (Q05823 whole entry): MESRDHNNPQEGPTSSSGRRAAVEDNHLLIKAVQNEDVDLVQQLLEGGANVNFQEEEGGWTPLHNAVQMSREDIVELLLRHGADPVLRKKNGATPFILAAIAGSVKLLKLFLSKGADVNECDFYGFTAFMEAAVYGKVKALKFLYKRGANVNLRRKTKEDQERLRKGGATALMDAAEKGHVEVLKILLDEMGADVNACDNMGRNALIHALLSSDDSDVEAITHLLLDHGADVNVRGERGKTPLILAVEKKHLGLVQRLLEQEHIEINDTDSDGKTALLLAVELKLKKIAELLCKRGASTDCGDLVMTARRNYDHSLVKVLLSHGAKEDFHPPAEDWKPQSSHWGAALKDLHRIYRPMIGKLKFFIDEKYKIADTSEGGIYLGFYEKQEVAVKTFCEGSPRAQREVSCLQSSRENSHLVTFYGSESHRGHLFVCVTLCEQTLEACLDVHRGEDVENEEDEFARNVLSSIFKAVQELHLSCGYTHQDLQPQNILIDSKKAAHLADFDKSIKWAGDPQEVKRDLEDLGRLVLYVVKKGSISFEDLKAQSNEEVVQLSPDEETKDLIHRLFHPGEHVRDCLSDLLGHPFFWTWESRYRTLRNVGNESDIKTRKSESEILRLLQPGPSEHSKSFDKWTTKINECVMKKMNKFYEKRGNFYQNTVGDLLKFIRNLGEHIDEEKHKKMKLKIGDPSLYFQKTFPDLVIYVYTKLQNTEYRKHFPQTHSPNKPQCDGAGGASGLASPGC
# [2] = target: T2, 2-5A-dependent ribonuclease (Homo sapiens) (UniProt Q05823); assay: Antagonist activity at human RNase L expressed in Escherichia coli BL21 (DE3) cells assessed as RNA cleavage using Cy5-C11-rUU-C7-BHQ2 as substrate by FRET assay in presence of natural activator pAAAA; format: functional
# T2 sequence (whole entry): T1 sequence (Q05823 whole entry)
EC50 [1] [nM],inhibition [2],Compound
> 1000,,Nc1ncnc2c1ncn2[C@@H]1O[C@H](COP(=O)(O)O[C@@H]2[C@H](O)[C@@H](COP(=O)(O)O[C@@H]3[C@H](O)[C@@H](COP(=O)(O)CO[C@@H]4[C@H](O)[C@@H](COP(=O)(O)O)O[C@H]4n4cnc5c(N)ncnc54)O[C@H]3n3cnc4c(N)ncnc43)O[C@H]2n2cnc3c(N)ncnc32)[C@@H](O)[C@H]1O
> 1000,,Nc1ncnc2c1ncn2[C@@H]1O[C@H](COP(=O)(O)O[C@@H]2[C@H](O)[C@@H](COP(=O)(O)CO[C@@H]3[C@@H](O)[C@@H](COP(=O)(O)O[C@@H]4[C@H](O)[C@@H](COP(=O)(O)O)O[C@H]4n4cnc5c(N)ncnc54)O[C@H]3n3cnc4c(N)ncnc43)O[C@H]2n2cnc3c(N)ncnc32)[C@@H](O)[C@H]1O
> 1000,,Nc1ncnc2c1ncn2[C@@H]1O[C@H](COP(=O)(O)O[C@@H]2[C@H](O)[C@@H](COP(=O)(O)O[C@@H]3[C@@H](O)[C@@H](COCP(=O)(O)O[C@@H]4[C@H](O)[C@@H](COP(=O)(O)O)O[C@H]4n4cnc5c(N)ncnc54)O[C@H]3n3cnc4c(N)ncnc43)O[C@H]2n2cnc3c(N)ncnc32)[C@@H](O)[C@H]1O
,inactive,Nc1ncnc2c1ncn2[C@@H]1O[C@H](COP(=O)(O)O[C@@H]2[C@H](O)[C@@H](COP(=O)(O)O[C@@H]3[C@H](O)[C@@H](COCP(=O)(O)O[C@@H]4[C@H](O)[C@@H](COCP(=O)(O)O)O[C@H]4n4cnc5c(N)ncnc54)O[C@H]3n3cnc4c(N)ncnc43)O[C@H]2n2cnc3c(N)ncnc32)[C@@H](O)[C@H]1O
,inactive,Nc1ncnc2c1ncn2[C@@H]1O[C@H](COP(=O)(O)O[C@@H]2[C@@H](O)[C@@H](COCP(=O)(O)O[C@@H]3[C@@H](O)[C@@H](COCP(=O)(O)O[C@@H]4[C@@H](O)[C@@H](COCP(=O)(O)O)O[C@H]4n4cnc5c(N)ncnc54)O[C@H]3n3cnc4c(N)ncnc43)O[C@H]2n2cnc3c(N)ncnc32)[C@@H](O)[C@H]1O
,inactive,Nc1ncnc2c1ncn2[C@@H]1O[C@H](COP(=O)(O)CO[C@@H]2[C@@H](O)[C@@H](COP(=O)(O)CO[C@@H]3[C@@H](O)[C@@H](COP(=O)(O)CO[C@@H]4[C@@H](O)[C@@H](COP(=O)(O)O)O[C@H]4n4cnc5c(N)ncnc54)O[C@H]3n3cnc4c(N)ncnc43)O[C@H]2n2cnc3c(N)ncnc32)[C@@H](O)[C@H]1O
,inactive,Nc1ncnc2c1ncn2[C@@H]1O[C@H](COCP(=O)(O)O[C@@H]2[C@H](O)[C@@H](COCP(=O)(O)O[C@@H]3[C@H](O)[C@@H](COCP(=O)(O)O[C@@H]4[C@H](O)[C@@H](COP(=O)(O)O)O[C@H]4n4cnc5c(N)ncnc54)O[C@H]3n3cnc4c(N)ncnc43)O[C@H]2n2cnc3c(N)ncnc32)[C@@H](O)[C@H]1O
,inactive,Nc1ncnc2c1ncn2[C@@H]1O[C@H](COCP(=O)(O)O[C@@H]2[C@H](O)[C@@H](COCP(=O)(O)O[C@@H]3[C@H](O)[C@@H](COP(=O)(O)O[C@@H]4[C@H](O)[C@@H](COCP(=O)(O)O)O[C@H]4n4cnc5c(N)ncnc54)O[C@H]3n3cnc4c(N)ncnc43)O[C@H]2n2cnc3c(N)ncnc32)[C@@H](O)[C@H]1O
,inactive,Nc1ncnc2c1ncn2[C@@H]1O[C@H](COP(=O)(O)CO[C@@H]2[C@@H](O)[C@@H](COP(=O)(O)CO[C@@H]3[C@@H](O)[C@@H](COP(=O)(O)O[C@@H]4[C@H](O)[C@@H](COP(=O)(O)O)O[C@H]4n4cnc5c(N)ncnc54)O[C@H]3n3cnc4c(N)ncnc43)O[C@H]2n2cnc3c(N)ncnc32)[C@@H](O)[C@H]1O
,inactive,Nc1ncnc2c1ncn2[C@@H]1O[C@H](COCP(=O)(O)O[C@@H]2[C@H](O)[C@@H](COP(=O)(O)O[C@@H]3[C@H](O)[C@@H](COP(=O)(O)O[C@@H]4[C@H](O)[C@@H](COCP(=O)(O)O)O[C@H]4n4cnc5c(N)ncnc54)O[C@H]3n3cnc4c(N)ncnc43)O[C@H]2n2cnc3c(N)ncnc32)[C@@H](O)[C@H]1O
,inactive,Nc1ncnc2c1ncn2[C@@H]1O[C@H](COCP(=O)(O)O[C@H]2[C@H](O)[C@@H](COCP(=O)(O)O[C@@H]3[C@H](O)[C@@H](COP(=O)(O)O[C@@H]4[C@H](O)[C@@H](COP(=O)(O)O)O[C@H]4n4cnc5c(N)ncnc54)O[C@H]3n3cnc4c(N)ncnc43)O[C@H]2n2cnc3c(N)ncnc32)[C@@H](O)[C@@H]1O
,inactive,Nc1ncnc2c1ncn2[C@@H]1O[C@H](COP(=O)(O)CO[C@H]2[C@H](O)[C@@H](COP(=O)(O)O[C@@H]3[C@H](O)[C@@H](COP(=O)(O)CO[C@H]4[C@H](O)[C@@H](COP(=O)(O)O)O[C@H]4n4cnc5c(N)ncnc54)O[C@H]3n3cnc4c(N)ncnc43)O[C@H]2n2cnc3c(N)ncnc32)[C@@H](O)[C@H]1O
,inactive,Nc1ncnc2c1ncn2[C@@H]1O[C@H](COCP(=O)(O)O[C@@H]2[C@H](O)[C@@H](COP(=O)(O)O[C@H]3[C@H](O)[C@@H](COCP(=O)(O)O[C@H]4[C@H](O)[C@@H](COCP(=O)(O)O)O[C@H]4n4cnc5c(N)ncnc54)O[C@H]3n3cnc4c(N)ncnc43)O[C@H]2n2cnc3c(N)ncnc32)[C@@H](O)[C@@H]1O
,inactive,Nc1ncnc2c1ncn2[C@@H]1O[C@H](COP(=O)(O)O[C@@H]2[C@@H](O)[C@@H](COCP(=O)(O)O[C@@H]3[C@H](O)[C@@H](COP(=O)(O)O[C@@H]4[C@@H](O)[C@@H](COCP(=O)(O)O)O[C@H]4n4cnc5c(N)ncnc54)O[C@H]3n3cnc4c(N)ncnc43)O[C@H]2n2cnc3c(N)ncnc32)[C@@H](O)[C@H]1O
,inactive,Nc1ncnc2c1ncn2[C@@H]1O[C@H](COCP(=O)(O)O[C@@H]2[C@@H](O)[C@@H](COCP(=O)(O)O[C@@H]3[C@H](O)[C@@H](COP(=O)(O)O[C@@H]4[C@@H](O)[C@@H](COCP(=O)(O)O)O[C@H]4n4cnc5c(N)ncnc54)O[C@H]3n3cnc4c(N)ncnc43)O[C@H]2n2cnc3c(N)ncnc32)[C@H](O)[C@H]1O
,inactive,Nc1ncnc2c1ncn2[C@@H]1O[C@H](COCP(=O)(O)O[C@@H]2[C@H](O)[C@@H](COP(=O)(O)O[C@@H]3[C@@H](O)[C@@H](COCP(=O)(O)O[C@@H]4[C@@H](O)[C@@H](COCP(=O)(O)O)O[C@H]4n4cnc5c(N)ncnc54)O[C@H]3n3cnc4c(N)ncnc43)O[C@H]2n2cnc3c(N)ncnc32)[C@H](O)[C@H]1O
,inactive,Nc1ncnc2c1ncn2[C@@H]1O[C@H](COP(=O)(O)O[C@H]2[C@H](O)[C@@H](COCP(=O)(O)O[C@@H]3[C@H](O)[C@@H](COP(=O)(O)O[C@H]4[C@H](O)[C@@H](COCP(=O)(O)O)O[C@H]4n4cnc5c(N)ncnc54)O[C@H]3n3cnc4c(N)ncnc43)O[C@H]2n2cnc3c(N)ncnc32)[C@@H](O)[C@H]1O
,inactive,Nc1ncnc2c1ncn2[C@@H]1O[C@H](COP(=O)(O)CO[C@@H]2[C@H](O)[C@@H](COP(=O)(O)O[C@@H]3[C@H](O)[C@@H](COP(=O)(O)CO[C@@H]4[C@H](O)[C@@H](COP(=O)(O)O)O[C@H]4n4cnc5c(N)ncnc54)O[C@H]3n3cnc4c(N)ncnc43)O[C@H]2n2cnc3c(N)ncnc32)[C@@H](O)[C@H]1O
,inactive,Nc1ncnc2c1ncn2[C@@H]1O[C@H](COP(=O)(O)O[C@@H]2[C@H](O)[C@@H](COP(=O)(O)O[C@H]3[C@H](O)[C@@H](COCP(=O)(O)O[C@H]4[C@H](O)[C@@H](COCP(=O)(O)O)O[C@H]4n4cnc5c(N)ncnc54)O[C@H]3n3cnc4c(N)ncnc43)O[C@H]2n2cnc3c(N)ncnc32)[C@@H](O)[C@H]1O
